Consider 56 compounds from patent US8097722B2 (priority 2008, dated 2012).
Note: test concentration or dose not given here.

The first assay has as its system liver PMPMEase. The format is biochemical, porcine.
Turning to `COP(=S)(OC)Oc1ccc(Sc2ccc(OP(=S)(OC)OC)cc2)cc1` [Abate], the “Liver Mean (mean percent inhibition relative to the controls)” value amounted to 80%.
`COP(=S)(OC)SCn1nnc2ccccc2c1=O` [Azinphos-M]: the “Liver Mean (mean percent inhibition relative to the controls)” value turned out to be 47%.
On the same count and under the same terms, the result for `CCOP(=S)(OCC)Oc1cc(Cl)c(Br)cc1Cl` [Bromophos-E] reads 76%; that for `CCOP(=S)(OCC)SCSc1ccc(Cl)cc1` [Carbophenothion], 49%; that for `CCOP(=S)(OCC)SCCl` [Chlormefos], 86%.
The same measure, in the same setting: the result for `CCOP(=S)(OCC)ON=C(C#N)c1ccccc1Cl` [Chlorphoxim] reads 100%.
Still for that read-out and setting: next, `CCOP(=S)(OCC)Oc1nc(Cl)c(Cl)cc1Cl` [Chlorpyriphos]: 100%; `CCOP(=S)(OCC)Oc1cc(Cl)c(SC)cc1Cl` [Chlorthiophos]: 52%; `CCOP(=S)(OCC)Oc1ccc2c(C)c(Cl)c(=O)oc2c1` [Coumaphos]: 46%.
As to `COP(=S)(Oc1ccc(C#N)cc1)c1ccccc1` (centres unmarked) [Cyamophenphos], the “Liver Mean (mean percent inhibition relative to the controls)” value was determined as 53%.
Still for that read-out and setting: next, `COP(=S)(OC)Oc1ccc(C#N)cc1` [Cyanophos]: 89%; `CCSCCSP(=O)(OC)OC` [Demeton-S-M]: 12%; `CCOP(=O)(OCC)SCCSCC` [Demeton-S]: 96%.
On the same count and under the same terms, next, `CCOP(=S)(OCC)SC(CCl)N1C(=O)c2ccccc2C1=O` (centres unmarked) [Dialifos]: 96%; `CCOP(=S)(OCC)Oc1cc(C)nc(C(C)C)n1` [Diazinon]: 95%.
On the same count and under the same terms, next, `CCOP(=S)(OCC)Oc1ccc(Cl)cc1Cl` [Dichlofenthion]: 56%.
`COP(=O)(OC)OC=C(Cl)Cl` [Dichlorvos]: the “Liver Mean (mean percent inhibition relative to the controls)” value worked out at 83%.
The same measure, in the same setting: next, `CNC(=O)CSP(=S)(OC)OC` [Dimethoate]: 12%.
Still for that read-out and setting: the result for `CCOP(=S)(OCC)SC1OCCOC1SP(=S)(OCC)OCC` (centres unmarked) [Dioxathion] reads 57%; that for `CCOP(=S)(OCC)SCCSCC` [Disulfoton], 38%; that for `CCOP(=S)(OCC)SCSP(=S)(OCC)OCC` [Ethion], 92%.
As for `CCOc1cc(OP(=S)(OC)OC)nc(CC)n1` [Etrimfos], the “Liver Mean (mean percent inhibition relative to the controls)” value is 100%.
On the same count and under the same terms, the result for `COP(=S)(OC)Oc1ccc(S(=O)(=O)N(C)C)cc1` [Famphur] reads 71%.
Still for that read-out and setting: the result for `COP(=S)(OC)Oc1ccc([N+](=O)[O-])c(C)c1` [Fenitrothion] reads 98%; that for `CCOP(=S)(OCC)Oc1ccc([S+](C)[O-])cc1` (centres unmarked) [Fensulfothion], 100%; that for `COP(=S)(OC)Oc1ccc(SC)c(C)c1` [Fenthion], 40%.
Consider `COP(=S)(OC)Oc1cc(Cl)c(I)cc1Cl` [Jodfenphos], for which the “Liver Mean (mean percent inhibition relative to the controls)” value worked out at 96%.
On the same count and under the same terms, next, `COP(=S)(Oc1cc(Cl)c(Br)cc1Cl)c1ccccc1` (centres unmarked) [Leptophos]: 60%; `CCOC(=O)CC(SP(=O)(OC)OC)C(=O)OCC` (centres unmarked) [Malaoxon]: 87%.
Same read-out and setting: next, `CCOC(=O)CC(SP(=S)(OC)OC)C(=O)OCC` (centres unmarked) [Malathion]: 53%.
Same read-out and setting: next, `CCOP(=O)(N=C1SCC(C)S1)OCC` (centres unmarked) [Mephosfolan]: 100%; `COC(=O)/C(C)=C/OP(=S)(OC)OC` [Methacrifos]: 87%; `COP(N)(=O)SC` (centres unmarked) [Methamidophos]: 45%.
Turning to `COc1nn(CSP(=S)(OC)OC)c(=O)s1` [Methidathion], the “Liver Mean (mean percent inhibition relative to the controls)” value is on record as 78%.
On the same count and under the same terms, next, `COP(=S)(OC)Oc1ccc([N+](=O)[O-])cc1` [Methyl-Parathion]: 100%.
Same read-out and setting: the result for `CNC(=O)CSP(=O)(OC)OC` [Omethoate] reads 12%; that for `CCOP(=O)(NC(C)C)Oc1ccc(SC)c(C)c1` (centres unmarked) [Phenamiphos], 92%; that for `CCOC(=O)C(SP(=S)(OC)OC)c1ccccc1` (centres unmarked) [Phenthoate], 96%.
Still for that read-out and setting: the result for `CCOP(=S)(OCC)SCn1c(=O)oc2cc(Cl)ccc21` [Phosalone] reads 79%; that for `COC(=O)/C=C(\C)OP(=O)(OC)OC` [Phosdrin], 70%; that for `CCN(CC)C(=O)/C(Cl)=C(/C)OP(=O)(OC)OC` [Phosphamidon], 69%.
With `CCN(CC)c1nc(C)cc(OP(=S)(OC)OC)n1` [Pirimiphos-M], the “Liver Mean (mean percent inhibition relative to the controls)” value amounted to 79%.
With `CCCSP(=O)(OCC)Oc1ccc(Br)cc1Cl` (centres unmarked) [Profenofos], the “Liver Mean (mean percent inhibition relative to the controls)” value was 97%.
On the same count and under the same terms, the result for `CCCSP(=O)(OCC)Oc1cnn(-c2ccc(Cl)cc2)c1` (centres unmarked) [Pyraclofos] reads 95%.
Still for that read-out and setting: next, `COP(=S)(OC)Oc1cc(Cl)c(Cl)cc1Cl` [Ronnel]: 93%; `CNP(=S)(OC)O/C(C)=C/C(=O)OC(C)C` (centres unmarked) [Safrotin]: 54%.
Still for that read-out and setting: the result for `CCOP(=S)(OCC)OP(=S)(OCC)OCC` [Sulfotep] reads 97%; that for `CCOP(=S)(OCC)SCSC(C)(C)C` [Terbufos], 72%; that for `COP(=O)(OC)O/C(=C/Cl)c1cc(Cl)c(Cl)cc1Cl` [Tetrachlorvinphos], 91%.
For the compound `CCCSP(=S)(OCC)Oc1ccc(Cl)cc1Cl` (centres unmarked) [Tokuthion], the “Liver Mean (mean percent inhibition relative to the controls)” value turned out to be 76%.
Same read-out and setting: next, `CNC(=O)C(C)SCCSP(=O)(OC)OC` (centres unmarked) [Vamidothion]: 55%; Acephate: “NO INHIBITION”.
The same measure, in the same setting: the result for Dicrotophos reads 56%; that for Edifenphos, 97%; that for Heptenophos, 96%.
The same measure, in the same setting: next, Monocrotophos: 18%.

The subject of a further assay is brain PMPMEase. The format is biochemical, porcine.
Regarding `COP(=S)(OC)Oc1ccc(Sc2ccc(OP(=S)(OC)OC)cc2)cc1` [Abate], the “Brain Mean (mean percent inhibition relative to the controls)” value was 59%.
On the same count and under the same terms, the result for `COP(=S)(OC)SCn1nnc2ccccc2c1=O` [Azinphos-M] reads 73%.
Still for that read-out and setting: the result for `CCOP(=S)(OCC)Oc1cc(Cl)c(Br)cc1Cl` [Bromophos-E] reads 68%; that for `CCOP(=S)(OCC)SCSc1ccc(Cl)cc1` [Carbophenothion], 55%.
The same measure, in the same setting: the result for `CCOP(=S)(OCC)SCCl` [Chlormefos] reads 65%; that for `CCOP(=S)(OCC)ON=C(C#N)c1ccccc1Cl` [Chlorphoxim], 55%.
Turning to `CCOP(=S)(OCC)Oc1nc(Cl)c(Cl)cc1Cl` [Chlorpyriphos], the “Brain Mean (mean percent inhibition relative to the controls)” value came to 67%.
For the compound `CCOP(=S)(OCC)Oc1cc(Cl)c(SC)cc1Cl` [Chlorthiophos], the “Brain Mean (mean percent inhibition relative to the controls)” value was 22%.
As for `CCOP(=S)(OCC)Oc1ccc2c(C)c(Cl)c(=O)oc2c1` [Coumaphos], the “Brain Mean (mean percent inhibition relative to the controls)” value was 62%.
Same read-out and setting: next, `COP(=S)(Oc1ccc(C#N)cc1)c1ccccc1` (centres unmarked) [Cyamophenphos]: 52%.
The same measure, in the same setting: the result for `COP(=S)(OC)Oc1ccc(C#N)cc1` [Cyanophos] reads 65%; that for `CCSCCSP(=O)(OC)OC` [Demeton-S-M], 31%; that for `CCOP(=O)(OCC)SCCSCC` [Demeton-S], 62%.
Still for that read-out and setting: the result for `CCOP(=S)(OCC)SC(CCl)N1C(=O)c2ccccc2C1=O` (centres unmarked) [Dialifos] reads 52%; that for `CCOP(=S)(OCC)Oc1cc(C)nc(C(C)C)n1` [Diazinon], 31%; that for `CCOP(=S)(OCC)Oc1ccc(Cl)cc1Cl` [Dichlofenthion], “NO INHIBITION”.
Take `COP(=O)(OC)OC=C(Cl)Cl` [Dichlorvos]: the “Brain Mean (mean percent inhibition relative to the controls)” value was 81%.
The same measure, in the same setting: the result for `CCOP(=S)(OCC)SC1OCCOC1SP(=S)(OCC)OCC` (centres unmarked) [Dioxathion] reads 15%.
On the same count and under the same terms, the result for `CCOP(=S)(OCC)SCCSCC` [Disulfoton] reads “NO INHIBITION”; that for `CCOP(=S)(OCC)SCSP(=S)(OCC)OCC` [Ethion], “NO INHIBITION”; that for `CCOc1cc(OP(=S)(OC)OC)nc(CC)n1` [Etrimfos], 78%.
On the same count and under the same terms, the result for `COP(=S)(OC)Oc1ccc(S(=O)(=O)N(C)C)cc1` [Famphur] reads 60%.
Consider `COP(=S)(OC)Oc1ccc([N+](=O)[O-])c(C)c1` [Fenitrothion], for which the “Brain Mean (mean percent inhibition relative to the controls)” value is reported as 75%.
Still for that read-out and setting: next, `CCOP(=S)(OCC)Oc1ccc([S+](C)[O-])cc1` (centres unmarked) [Fensulfothion]: 100%; `COP(=S)(OC)Oc1ccc(SC)c(C)c1` [Fenthion]: 17%.
Still for that read-out and setting: next, `COP(=S)(OC)Oc1cc(Cl)c(I)cc1Cl` [Jodfenphos]: 69%.
Same read-out and setting: next, `COP(=S)(Oc1cc(Cl)c(Br)cc1Cl)c1ccccc1` (centres unmarked) [Leptophos]: 29%.
For the compound `CCOC(=O)CC(SP(=O)(OC)OC)C(=O)OCC` (centres unmarked) [Malaoxon], the “Brain Mean (mean percent inhibition relative to the controls)” value worked out at 51%.
Same read-out and setting: the result for `CCOC(=O)CC(SP(=S)(OC)OC)C(=O)OCC` (centres unmarked) [Malathion] reads 51%.
The same measure, in the same setting: next, `COC(=O)/C(C)=C/OP(=S)(OC)OC` [Methacrifos]: 61%; `COP(N)(=O)SC` (centres unmarked) [Methamidophos]: 24%; `COc1nn(CSP(=S)(OC)OC)c(=O)s1` [Methidathion]: 56%.
Consider `COP(=S)(OC)Oc1ccc([N+](=O)[O-])cc1` [Methyl-Parathion], for which the “Brain Mean (mean percent inhibition relative to the controls)” value turned out to be 75%.
Same read-out and setting: next, `CNC(=O)CSP(=O)(OC)OC` [Omethoate]: 33%.
Still for that read-out and setting: next, `CCOC(=O)C(SP(=S)(OC)OC)c1ccccc1` (centres unmarked) [Phenthoate]: 55%.
The same measure, in the same setting: next, `CCOP(=S)(OCC)SCn1c(=O)oc2cc(Cl)ccc21` [Phosalone]: 62%.
As for `COC(=O)/C=C(\C)OP(=O)(OC)OC` [Phosdrin], the “Brain Mean (mean percent inhibition relative to the controls)” value worked out at 67%.
Turning to `CCN(CC)C(=O)/C(Cl)=C(/C)OP(=O)(OC)OC` [Phosphamidon], the “Brain Mean (mean percent inhibition relative to the controls)” value turned out to be 53%.
For the compound `CCN(CC)c1nc(C)cc(OP(=S)(OC)OC)n1` [Pirimiphos-M], the “Brain Mean (mean percent inhibition relative to the controls)” value is 42%.
Same read-out and setting: the result for `CCCSP(=O)(OCC)Oc1ccc(Br)cc1Cl` (centres unmarked) [Profenofos] reads 81%; that for `CCCSP(=O)(OCC)Oc1cnn(-c2ccc(Cl)cc2)c1` (centres unmarked) [Pyraclofos], 82%.
Turning to `COP(=S)(OC)Oc1cc(Cl)c(Cl)cc1Cl` [Ronnel], the “Brain Mean (mean percent inhibition relative to the controls)” value was found to be 45%.
Still for that read-out and setting: next, `CNP(=S)(OC)O/C(C)=C/C(=O)OC(C)C` (centres unmarked) [Safrotin]: 52%; `CCOP(=S)(OCC)OP(=S)(OCC)OCC` [Sulfotep]: 47%; `CCOP(=S)(OCC)SCSC(C)(C)C` [Terbufos]: 100%.
Still for that read-out and setting: the result for `COP(=O)(OC)O/C(=C/Cl)c1cc(Cl)c(Cl)cc1Cl` [Tetrachlorvinphos] reads 100%; that for `CCCSP(=S)(OCC)Oc1ccc(Cl)cc1Cl` (centres unmarked) [Tokuthion], 100%.
Still for that read-out and setting: next, Acephate: 50%.
Regarding Edifenphos, the “Brain Mean (mean percent inhibition relative to the controls)” value was 81%.
In the case of Heptenophos, the “Brain Mean (mean percent inhibition relative to the controls)” value came to 71%.
Still for that read-out and setting: next, Monocrotophos: 30%.
